Where a name gives a salt, the structure may show the parent alone.
Experiments:
[1] = HPLC assay of the impurity of the Formula (II) in the duloxetine salt obtained; type: physicochemical; details: rearrangement product of duloxetine, salt as obtained, limit of detection 0.01 percent by weight
Description: The limit of detection for the compound of the Formula (II) is a feature of the high-performance liquid chromatographic method used for the assay thereof. Using the chromatographic method disclosed in the present application, said limit of detection is 0.01 percent by weight.
The analysis is carried out using ultraviolet absorption detector under the following chromatographic conditions:
Column, Chiral OD-R, 250*4,6 mm, 10 μm particle size • Flow rate, 1.0 ml/minute • Injection volume, 10 μl • Column temperature, 40° C. • Temperature of sample compartment, 20° C. • Detection wavelength, 220 nm • Mobile phase A: solution of 40 g of sodium hydroxide and 85 ml of concentrated perchloric acid are dissolved in 200 ml of distilled water, pH 2.1 • B: acetonitrile • Eluent composition, isocratic, 55 percent by volume mobile phase A • Analysis time, 30 minutes • Sample concentration, 10 mg/10 ml • Sample solvent, water-acetonitrile 80:20 volume/volume • Needle wash, water-acetonitrile […] volume/volume • Selectivity factor, >4 • Number of theoretical plates, min. 10000 • Asymmetry factor, <2
The assay is carried out according to the requirements of the pharmacopoeia regarding the determination of the impurities.
(§1) A sample containing approximately 100 mg of duloxetine is thoroughly homogenized in a mortar, weighed with analytical precision and transferred into a suitable volumetric flask. 80 ml of 80:20 volume by volume mixture of water and acetonitrile are added to the sample and the suspension is shaked in an ultrasonic bath for 10 minutes at the temperature of 25° C. The suspension is filtered and completed to 100 ml with the extraction solvent.

[2] = Stability testing of duloxetine-containing medicinal products (HPLC, mass spectrometry); type: physicochemical; details: during manufacture of the salt and during shelf-life of the medicinal products prepared from it
Description: During the process of stability testing, the identity and concentration of individual impurities present in the medicinal product are determined as the function of time and storage conditions. In the aforementioned tests, generally high-performance liquid chromatography and mass spectrometry are used as analytical methods.
In order to identify the above mentioned impurities, each of them has been separated by high-performance liquid chromatography and their molecular weight was determined by mass spectrometry.
Subsequently, the compound of the Formula (II) has been prepared by the rearrangement of duloxetine hydrobromide in pure form and in good yield and the thus obtained product was subjected to structure elucidation. The identity of the thus obtained (±)-N-methyl-3-(2-thienyl)-3-(4-hydroxy-1-naphtyl)-propylamine of the Formula (II) with the impurity observed during the stability testing has been established using high-performance liquid chromatography and mass spectrometry.
The following sample preparation method has been used during the stability testing of duloxetine-containing medicinals products and assay of duloxetine active ingredients.
as §1, with “solvent. A 10-μl portion of the thus obtained solution is analyzed by the high-performance liquid chromatographic method of Example 9.” for “solvent.”

[3] = preparation of salts with strong mineral acids, especially hydrobromic acid; 25 to 50° C.

| Compound | melting point [°C] | amount of the impurity of the Formula (II) in the product [1] | formation of (±)-N-methyl-3-(2-thienyl)-3-(4-hydroxy-1-naphtyl)-propylamine of the Formula (II) [2] | time in which the compound of the Formula (II) forms [3] |
| --- | --- | --- | --- | --- |
| CNCCC(c1cccs1)c1ccc(O)c2ccccc12 (racemic) | 190 to 196 | – | – | – |
| CNCCC(Oc1cccc2ccccc12)c1cccs1.O=C(O)C(O)c1ccccc1 (stereo not drawn) [Example 3, (+)-N-methyl-3-(1-naphtyloxy)-3-(2-thienyl)-propylamine(−)-mandelate (1:1)] | – | less than 0.01 percent by weight | can be detected neither during the manufacture of the above-mentioned particularly preferable salts, nor during the shelf-life | – |
| CNCC[C@H](Oc1cccc2ccccc12)c1cccs1 [Example 6, (+)-N-methyl-3-(1-naphtyloxy)-3-(2-thienyl)-propylamine hydrochloride (1:1), reference compound] | – | approximately 0.05 percent by weight | – | – |
| CNCC[C@H](Oc1cccc2ccccc12)c1cccs1 [duloxetine, (+)-(S)—N-methyl-3-(1-naphtyloxy)-3-(2-thienyl)-propylamine] | – | – | – | a few minutes |
| (+)-N-methyl-3-(1-naphtyloxy)-3-(2-thienyl)-propylamine citrate (1:1) [Example 1] | – | less than 0.01 percent by weight | can be detected neither during the manufacture of the above-mentioned particularly preferable salts, nor during the shelf-life | – |
| (+)-N-methyl-3-(1-naphtyloxy)-3-(2-thienyl)-propylamine fumarate (1:1) [Example 2] | – | less than 0.01 percent by weight | can be detected neither during the manufacture of the above-mentioned particularly preferable salts, nor during the shelf-life | – |
